Laboratory results as given in ChEMBL document CHEMBL5370646, “Synthesis and Conformational Analysis of FR901464-Based RNA Splicing Modulators and Their Synergism in Drug-Resistant Cancers” (J Med Chem, 2023).
The source made the active and inactive calls. The calls are words filed in the database; no cut-off is given here.

Assays:
[1] = Growth inhibition of mouse FL83B cells assessed as reduction in cell viability incubated for 72 hrs; format: toxicity, cell-based
[2] = Synergistic antiproliferative activity against human Osimertinib-resistant HCC827AR cell assessed as combination index at 2.5 nM incubated for 72 hrs in presence of 0.25 uM osimertinib by WST-1 assay; format: functional
[3] = Metabolic stability in CD1 mouse plasma measured after 48 hrs by LC-MS analysis; format: ADME, cell-free
DMS-53 [4] = assay: Growth inhibition of human DMS-53 cells assessed as reduction in cell viability incubated for 72 hrs; format: functional
DMS-53 [5] = assay: Synergistic antiproliferative activity against human DMS-53 cells assessed as combination index at 1.5 nM incubated for 72 hrs in presence of […] venetoclax by WST-1 assay; format: functional
[6] = Synergistic antiproliferative activity against human Osimertinib-resistant HCC827AR cell assessed as combination index at 1 nM incubated for 72 hrs in presence of 0.25 uM osimertinib by WST-1 assay; format: functional
DMS-53 [7] = assay: Synergistic antiproliferative activity against human DMS-53 cells assessed as combination index at 1.5 nM incubated for 72 hrs in presence of […] venetoclax by WST-1 assay; format: functional
[8] = Growth inhibition of human CCD-841CoN cells assessed as reduction in cell viability incubated for 72 hrs; format: toxicity, cell-based
[9] = Synergistic antiproliferative activity against human Osimertinib-resistant HCC827AR cell assessed as combination index at 2 nM incubated for 72 hrs in presence of 0.25 uM osimertinib by WST-1 assay; format: functional
[10] = Synergistic antiproliferative activity against human Osimertinib-resistant HCC827AR cell assessed as combination index at 1.5 nM incubated for 72 hrs in presence of 0.50 uM osimertinib by WST-1 assay; format: functional
[11] = Synergistic antiproliferative activity against human Osimertinib-resistant HCC827AR cell assessed as combination index at 2.5 nM incubated for 72 hrs in presence of 2 uM osimertinib by WST-1 assay; format: functional
DMS-114 [12] = assay: Synergistic antiproliferative activity against human DMS-114 cells assessed as combination index at 1 nM incubated for 72 hrs in presence of 3.6 uM venetoclax by WST-1 assay; format: functional
DMS-53 [13] = assay: Synergistic antiproliferative activity against human DMS-53 cells assessed as combination index at 2 nM incubated for 72 hrs in presence of 25 […] by WST-1 assay; format: functional
[14] = Synergistic antiproliferative activity against human Osimertinib-resistant HCC827AR cell assessed as combination index at 1 nM incubated for 72 hrs in presence of 4 uM osimertinib by WST-1 assay; format: functional
DMS-114 [15] = assay: Modulation of RNA splicing in human DMS-114 cells at 3 to 30 nM by Western blot analysis; format: functional, cell-based; details: dose 3-30 nM
DMS-114 [16] = assay: Synergistic antiproliferative activity against human DMS-114 cells assessed as combination index at 1 nM incubated for 72 hrs in presence of 12 uM venetoclax by WST-1 assay; format: functional
DMS-53 [17] = assay: Synergistic antiproliferative activity against human DMS-53 cells assessed as combination index at 2 nM incubated for 72 hrs in presence of 200 […] by WST-1 assay; format: functional
[18] = Synergistic antiproliferative activity against human Osimertinib-resistant HCC827AR cell assessed as combination index at 2.5 nM incubated for 72 hrs in presence of 4 uM osimertinib by WST-1 assay; format: functional
DMS-114 [19] = assay: Synergistic antiproliferative activity against human DMS-114 cells assessed as combination index at 3 nM incubated for 72 hrs in presence of 2.4 uM venetoclax by WST-1 assay; format: functional
DMS-114 [20] = assay: Synergistic antiproliferative activity against human DMS-114 cells assessed as combination index at 1 nM incubated for 72 hrs in presence of 2.4 uM venetoclax by WST-1 assay; format: functional
[21] = Metabolic stability in CD1 mouse plasma assessed as half life measured after 48 hrs by LC-MS analysis; format: ADME, cell-free
[22] = Synergistic antiproliferative activity against human Osimertinib-resistant HCC827AR cell assessed as combination index at 2 nM incubated for 72 hrs in presence of 2 uM osimertinib by WST-1 assay; format: functional
[23] = Synergistic antiproliferative activity against human Osimertinib-resistant HCC827AR cell assessed as combination index at 1 nM incubated for 72 hrs in presence of 0.50 uM osimertinib by WST-1 assay; format: functional
DMS-114 [24] = assay: Synergistic antiproliferative activity against human DMS-114 cells assessed as combination index at 2 nM incubated for 72 hrs in presence of 12 uM venetoclax by WST-1 assay; format: functional
DMS-53 [25] = assay: Synergistic antiproliferative activity against human DMS-53 cells assessed as combination index at 0.5 nM incubated for 72 hrs in presence of […] venetoclax by WST-1 assay; format: functional
DMS-53 [26] = assay: Synergistic antiproliferative activity against human DMS-53 cells assessed as combination index at 1 nM incubated for 72 hrs in presence of 50 uM venetoclax by WST-1 assay; format: functional
DMS-53 [27] = assay: Synergistic antiproliferative activity against human DMS-53 cells assessed as combination index at 2 nM incubated for 72 hrs in presence of 50 […] by WST-1 assay; format: functional
[28] = Synergistic antiproliferative activity against human Osimertinib-resistant HCC827AR cell assessed as combination index at 2.5 nM incubated for 72 hrs in presence of 1 uM osimertinib by WST-1 assay; format: functional
DMS-114 [29] = assay: Synergistic antiproliferative activity against human DMS-114 cells assessed as combination index at 2 nM incubated for 72 hrs in presence of 2.4 uM venetoclax by WST-1 assay; format: functional
[30] = Synergistic antiproliferative activity against human Osimertinib-resistant HCC827AR cell assessed as combination index at 2 nM incubated for 72 hrs in presence of 1 uM osimertinib by WST-1 assay; format: functional
DMS-53 [31] = assay: Synergistic antiproliferative activity against human DMS-53 cells assessed as combination index at 0.5 nM incubated for 72 hrs in presence of 50 uM venetoclax by WST-1 assay; format: functional
[32] = Synergistic antiproliferative activity against human Osimertinib-resistant HCC827AR cell assessed as combination index at 1 nM incubated for 72 hrs in presence of 1 uM osimertinib by WST-1 assay; format: functional
[33] = Synergistic antiproliferative activity against human Osimertinib-resistant HCC827AR cell assessed as combination index at 1 nM incubated for 72 hrs in presence of 2 uM osimertinib by WST-1 assay; format: functional
DMS-53 [34] = assay: Synergistic antiproliferative activity against human DMS-53 cells assessed as combination index at 1 nM incubated for 72 hrs in presence of […] venetoclax by WST-1 assay; format: functional
DMS-53 [35] = assay: Synergistic antiproliferative activity against human DMS-53 cells assessed as combination index at 1.5 nM incubated for 72 hrs in presence of 25 uM venetoclax by WST-1 assay; format: functional
SW48 = assay: Growth inhibition of human SW48 cells assessed as reduction in cell viability incubated for 72 hrs; format: functional
HCT-116 = assay: Modulation of RNA splicing in human HCT-116 cells assessed as decrease in MCL-1L expression by Western blot analysis; format: functional, cell-based; details: dose 3-100 nM

In the case of COCO[C@@H](C)/C=C\C(=O)N[C@@H]1C[C@H](C)[C@H](C/C=C(C)/C=C/[C@H]2OC(C)(C)C[C@@]3(CO3)[C@@H]2O)O[C@@H]1C, the GI50 at 72 h [1] is reported as 5.7 nM, the CI [2] is reported as 0.83 and the Stability [3] is reported as “Stable”. The GI50 (DMS-53 [4]) was 2.7 nM, the CI (DMS-53 [5]) was 0.72 and the CI [6] was 1.06. The CI (DMS-53 [7]) was 0.51, the GI50 at 72 h [8] was 9.6 nM and the CI [9] was 0.97. The CI [10] was 1.28, the CI [11] was 0.99 and the CI (DMS-114 [12]) was 1.34. For the same molecule, the CI (DMS-53 [13]) was 0.58, the CI [14] was 0.93 and the Activity (DMS-114 [15]) was “Active”. For the same molecule, the CI (DMS-114 [16]) was 0.88, the CI (DMS-53 [17]) was 0.4 and the CI [18] was 0.83. The CI (DMS-114 [19]) was 0.21, the CI (DMS-114 [20]) was 1.11 and the half-life [21] was 13 h. The CI [22] was 1.17, the CI [23] was 1.42 and the CI (DMS-114 [24]) was 0.44. For the same molecule, the CI (DMS-53 [25]) was 1.52, the CI (DMS-53 [26]) was 0.8 and the CI (DMS-53 [27]) was 0.47. It also gave a CI [28] of 1.04, a CI (DMS-114 [29]) of 0.69 and a CI [30] of 1.2. The CI (DMS-53 [31]) was 1.26, the CI [32] was 1.48 and the CI [33] was 1.37. For the same molecule, the CI (DMS-53 [34]) was 1.26, the CI (DMS-53 [35]) was 0.7 and the GI50 (SW48) was 2.5 nM. The Activity (HCT-116) was “Dose-Dependent Effect”.
